Source: patent US12156889B2, “Methods of administering mesenchymal stem cells activated by cytokines for enhancing immunosuppression” (Rutgers, The State University of New Jersey, priority 2012, dated 2024)

Key:
splenocytes = experiment: Anti-CD3-activated splenocyte proliferation in co-culture with MSCs; assay type: cell-based, mouse
Experimental: FIGS. 9A, 9B, 9C, 9D, 9E, 9F and 9G. […] Cloned MSCs were first treated with the indicated combinations of recombinant cytokines IFNγ, TNFα, IL-17A (2 ng/ml each) for 12 hr, then cocultured with CD4^+ T cell blasts at a 1:20 ratio (MSC:T cells), and proliferation was assessed by 3H-thymidine incorporation after an additional 12 hr. (FIG. 9B). The mRNA expression of IL-17 receptor family members in MSCs or Raw 264.7 (Macrophages) were examined by RT-PCR. NC: No RT. (FIG. 9C). Surface expression of IL-17RA was detected by immunofluoresence or flow cytometry in cloned MSCs. (FIGS. 9D and 9E). MSCs were first treated with IFNγ and TNFα with or without IL-17A (10 ng/ml), IFNγ and TNFα were supplemented at different cytokine concentrations, for 12 hr, and then cocultured with CD4^+ T cell blasts (FIG. 9D) or T cell hybridoma A1.1 cells (FIG. 9E) at a ratio of 1:20 for 12 hr. T cell proliferation was measured by 3H-Tdr incorporation. (FIG. 9F). MSCs were first treated with IFNγ and TNFα (2 ng/ml) with graded concentrations of IL-17A, for 12 hr, and then cocultured with T cell hybridoma A1.1 cells at a ratio of 1:10 for 12 hr. T cell proliferation was measured by 3H-thymidine incorporation. (FIG. 9G). MSCs were cocultured with fresh C57BL/6 splenocytes plus anti-CD3, anti-CD28, and antibodies against IL-17A, at a 1:20 or 1:40 ratio (MSCs:splenocytes), for 48 hr, and then cell proliferation was assessed by 3H-thymidine incorporation. Proliferation values represent means±SEM of three wells from a representative of three experiments.
To examine the possibility that cytokines induce the immunosuppressive capacity of MSCs, these culture conditions were reproduced by combining MSCs and fresh splenocytes at graded ratios in the presence of anti-CD3. […] The immunosuppressive capacity of MSC clones generated from different mouse strains was also examined.
To identify the mechanism through which immunosuppression by cytokine-exposed MSCs is effected, the response of anti-CD3-activated splenocytes co-cultured with MSCs (1:20, MSC:splenocytes) in a […] system was examined in various configurations.
Nitric oxide (NO) at high concentrations is known to inhibit T cell responses. It diffuses quickly from its source, but the concentration of the active form drops off within about 100 μm.
Proliferation assay—To assay T cell proliferation, 0.5 μCi of 3H-thymidine was added to each well of 96-well plates 6 hr before termination of the cultures by freezing. Plates were then thawed, cells were harvested, and incorporated 3H-Tdr was assessed with a Wallac Microbeta scintillation counter (Perkin-Elmer, Waltham, MA).

[1] = tested on: 355 B-cell lymphoma cell line; experiment: 355 B-cell lymphoma survival model; assay type: in vivo; details: 0.1 mg/mouse i.p. on day 0, 2, 4, 8, 12, 16, 20, 24, and 28
Experimental: FIG. 4. is a graph showing that lymphoma stromal cells (LSCs) promote lymphoma development in a NO-dependent manner. 355 B-cell lymphoma cell line (C3H-gld/gld background, 0.5×10^6 cells/mouse) was co-injected with gld/gld mice-derived lymphoma stromal cells (C3H background, P5, 0.25×10^6 cells/mouse) by tail-vein i.v. on day 0.1400 W (NOS inhibitor, 0.1 mg/mouse) was injected on day 0, 2, 4, 8, 12, 16, 20, 24, and 28 by i.p. Mice survival was recorded when mice were moribund.
To examine the effect of lymphoma stromal cells on tumor growth, 355 B-cell lymphoma cell line (C3H-gld/gld background, 0.5×10^6 cells/mouse) was co-injected with gld/gld mice-derived lymphoma stromal cells (C3H background, P5, 0.25×10^6 cells/mouse).

iNOS = iNOS protein and NO production in MSCs with type I IFN or FGF-2; assay type: cell-based, mouse; details: induced by IFN γ+TNF α or IFN γ+IL-β
From the text: FIGS. 17A, 17B, 17C and 17D. Type I interferons and FGF-2 down-regulate the immunosuppressive effect of MSCs through attenuation NO production. […] (FIG. 17C) FGF-2 (FGF B) inhibited the NO production which was induced by IFN γ+TNF α or IFN γ+IL-β in MSCs, reflected by nitrate content in the culture supernatants.

Q: For `CC(=N)NCc1cccc(CN)c1` [1400 W], which “splenocyte proliferation in MSC co-culture with iNOS inhibitor” value (splenocytes; MSCs + splenocytes + anti-CD3) is on record?
A: same effect

Q: And the “effect on stromal cell-enhanced mortality” value [1]?
A: significantly reverted the effect

B1: FGF-2: fibroblast growth factor (protein, UniProt P15655 10-154, looked up)
Fibroblast growth factor 2: PALPEDGGAAFPPGHFKDPKRLYCKNGGFFLRIHPDGRVDGVREKSDPHVKLQLQAEERGVVSIKGVCANRYLAMKEDGRLLASKCVTEECFFFERLESNNYNTYRSRKYSSWYVALKRTGQYKLGSKTGPGQKAILFLPMSAKS
Q: Which “NO production in MSCs (nitrate content in culture supernatants)” value (iNOS) does the source give for B1 here?
A: inhibited

Q: What about the “MSC-mediated immunosuppression in MSC+splenocyte+anti-CD3 system” value (splenocytes) of the same molecule?
A: significantly reduced
